Source: article PMC6155021, “Ancient and modern anticonvulsants act synergistically in a KCNQ potassium channel binding pocket” (Nature Communications, 2018)

What was measured:
[1] = tested on: water-injected control oocytes; experiment: Two-electrode voltage-clamp of water-injected control oocytes; assay type: cell-based, Xenopus laevis
Excerpt: Chemicals were sourced from Sigma.

[2] = biological target: KCNQ2 (Homo sapiens, UniProt O43526); experiment: Two-electrode voltage-clamp of homomeric KCNQ2 in Xenopus oocytes; assay type: cell-based
Excerpt: (§1) cRNA transcripts encoding human KCNA1, KCNQ1, KCNQ2, KCNQ3, KCNQ4, or KCNQ5 were generated by in vitro transcription using the T7 polymerase message machine kit (Thermo Fisher Scientific), after vector linearization, from cDNA sub-cloned into plasmids incorporating X. laevis β-globin 5′ and 3′ UTRs flanking the coding region to enhance translation and cRNA stability. cRNA was quantified by spectrophotometry. Mutant cDNAs were generated by site-directed mutagenesis using a QuikChange kit according to manufacturer’s protocol (Stratagene, San Diego, CA) and corresponding cRNAs prepared as above. Defolliculated stage V and VI X. laevis oocytes (Ecocyte Bioscience, Austin, TX) were injected with Kv channel α subunit cRNAs (10 ng total per oocyte). Oocytes were incubated at 16 °C in Barth’s saline solution (Ecocyte) containing penicillin and streptomycin, with daily washing, for 3–5 days prior to two-electrode voltage-clamp (TEVC) recording.
(§2) Oocytes were placed in a small-volume oocyte bath (Warner) and viewed with a dissection microscope. Chemicals were sourced from Sigma. Bath solution was (in mM): 96 NaCl, 4 KCl, 1 MgCl2, 1 CaCl2, 10 HEPES (pH 7.6). […] MTX (DMSO), sorbic acid (ethanol), and glutaconic acid (molecular grade H2O) were stored at −20 °C as 1 M stocks. Oleamide was stored as a 1 mM stock in ethanol at 4 °C. Palmitic acid was conjugated with bovine serum albumin as a 1 mM stock and stored at −20 °C. All compounds were diluted to working concentrations each experimental day. All compounds were introduced to the recording bath via gravity perfusion at a constant flow of 1 ml/min for 3 min prior to recording. Pipettes were of 1–2 MΩ resistance when filled with 3 M KCl. Currents were recorded in response to pulses between −80 and +40 mV at 20 mV intervals, or a single pulse to +40 mV, from a holding potential of −80 mV, to yield current–voltage relationships, current magnitude, and for quantifying activation rate. TEVC data analysis was performed with Clampfit10.2 (Molecular Devices) and Graphpad Prism software (GraphPad, San Diego, CA, USA); values are stated as mean ± SEM. Normalized tail currents were plotted versus prepulse voltage and fitted with a single Boltzmann function:1 g=A1-A2/1+expV12-Vy+A2, where g is the normalized tail conductance, A1 is the initial value at −∞, A2 is the final value at +∞, V1/2 is the half-maximal voltage of activation, and Vs the slope factor. Activation and deactivation kinetics were fitted with single-exponential functions.

[3] = biological target: KCNA1 (Homo sapiens, UniProt Q09470); experiment: Two-electrode voltage-clamp of KCNA1 in Xenopus oocytes; assay type: cell-based; conditions: MTX concentration not given; IVA 500 µM
Chain of KCNA1 (Q09470 whole entry): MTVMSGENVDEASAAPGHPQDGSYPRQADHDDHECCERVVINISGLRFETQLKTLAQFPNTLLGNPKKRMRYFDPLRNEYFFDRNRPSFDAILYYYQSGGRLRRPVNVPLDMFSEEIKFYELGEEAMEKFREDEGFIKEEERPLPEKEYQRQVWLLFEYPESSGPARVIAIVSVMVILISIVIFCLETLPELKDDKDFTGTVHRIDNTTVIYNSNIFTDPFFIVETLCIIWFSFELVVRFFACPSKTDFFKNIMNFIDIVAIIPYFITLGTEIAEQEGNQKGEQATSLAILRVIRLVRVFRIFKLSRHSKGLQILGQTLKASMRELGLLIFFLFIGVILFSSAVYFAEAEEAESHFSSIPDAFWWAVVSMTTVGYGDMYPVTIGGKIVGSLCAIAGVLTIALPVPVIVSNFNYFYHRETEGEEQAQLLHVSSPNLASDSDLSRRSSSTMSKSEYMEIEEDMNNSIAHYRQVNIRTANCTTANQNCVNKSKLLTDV
Excerpt: as §1
as §2, with “TEVC data analysis was performed with Clampfit10.2 (Molecular Devices) and Graphpad Prism software (GraphPad, San Diego, CA, USA); values are stated as mean ± SEM. Normalized tail currents were plotted versus prepulse voltage and fitted with a single Boltzmann function:1 g=A1-A2/1+expV12-Vy+A2, where g is the normalized tail conductance, A1 is the initial value at −∞, A2 is the final value at +∞, V1/2 is the half-maximal voltage of activation, and Vs the slope factor. Activation and deactivation kinetics were fitted with single-exponential functions.” left out

[4] = biological target: KCNQ1 (Homo sapiens, UniProt P51787); design: method as in PMID 27997884; conditions: cited from earlier work
Chain of KCNQ1 (P51787 whole entry): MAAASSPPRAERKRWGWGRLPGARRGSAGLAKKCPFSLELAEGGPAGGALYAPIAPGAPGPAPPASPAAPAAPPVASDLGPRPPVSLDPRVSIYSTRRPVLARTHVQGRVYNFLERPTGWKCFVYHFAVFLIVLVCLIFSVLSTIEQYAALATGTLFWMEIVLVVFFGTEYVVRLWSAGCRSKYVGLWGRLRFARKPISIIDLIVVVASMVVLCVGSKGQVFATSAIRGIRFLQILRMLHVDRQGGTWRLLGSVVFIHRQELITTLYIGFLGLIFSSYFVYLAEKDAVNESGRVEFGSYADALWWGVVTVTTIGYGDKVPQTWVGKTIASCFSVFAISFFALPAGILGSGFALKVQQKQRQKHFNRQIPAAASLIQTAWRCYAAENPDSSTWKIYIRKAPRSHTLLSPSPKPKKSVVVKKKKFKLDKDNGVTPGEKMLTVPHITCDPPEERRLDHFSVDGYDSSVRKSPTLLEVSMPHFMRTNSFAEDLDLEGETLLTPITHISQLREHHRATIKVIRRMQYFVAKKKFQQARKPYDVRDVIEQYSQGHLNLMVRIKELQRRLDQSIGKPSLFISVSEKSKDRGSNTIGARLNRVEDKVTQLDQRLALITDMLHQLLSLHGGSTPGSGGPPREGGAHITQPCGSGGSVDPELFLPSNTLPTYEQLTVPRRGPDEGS

[5] = biological target: KCNQ4 (Homo sapiens, UniProt P56696); experiment: cell-based; assay type: cell-based
Excerpt: as §1, §2

[6] = biological target: KCNQ5 (Homo sapiens, UniProt Q9NR82); experiment: cell-based; assay type: cell-based
Excerpt: as §1, §2

In the case of `CC(=O)c1c(O)c(C)c(O)c(Cc2c(O)c3c(c(C(=O)/C=C/c4ccccc4)c2O)OC(C)(C)C=C3)c1O` [MTX, mallotoxin], the “effect on endogenous current and EM of water-injected control oocytes” value [1] is reported as “no effect”, the EC50 [2] is reported as 6.4 µM and the “Non-normalized tail current V0.5” value ([2]; KCNQ2, 0.1 µM) is reported as -50.0 ± 0.4 mV. The “Normalized tail current V0.5” value ([2]; KCNQ2, 0.1 µM) was -50.0 ± 0.35 mV, the Slope ([2]; KCNQ2, 0.1 µM) was 7.4 ± 0.23 mV and the “τ act, -40 mV” value ([2]; KCNQ2, 0.1 µM) was 538 ± 20 ms. For the same molecule, the “τ deact, -80 mV” value ([2]; KCNQ2, 0.1 µM) was 294 ± 10 ms, the “Non-normalized tail current V0.5” value ([2]; KCNQ2, 1 µM) was -51.7 ± 2.0 mV and the “Normalized tail current V0.5” value ([2]; KCNQ2, 1 µM) was -51.4 ± 0.46 mV. The Slope ([2]; KCNQ2, 1 µM) was 7.4 ± 0.31 mV, the “τ act, -40 mV” value ([2]; KCNQ2, 1 µM) was 490 ± 23 ms and the “τ deact, -80 mV” value ([2]; KCNQ2, 1 µM) was 271 ± 11 ms. For the same molecule, the “Non-normalized tail current V0.5” value ([2]; KCNQ2, 3 µM) was -52.1 ± 2.5 mV, the “Normalized tail current V0.5” value ([2]; KCNQ2, 3 µM) was -54.9 ± 0.41 mV and the Slope ([2]; KCNQ2, 3 µM) was 7.3 ± 0.33 mV. For the same molecule, the “τ act, -40 mV” value ([2]; KCNQ2, 3 µM) was 417 ± 25 ms, the “τ deact, -80 mV” value ([2]; KCNQ2, 3 µM) was 237 ± 12 ms and the “Non-normalized tail current V0.5” value ([2]; KCNQ2, 10 µM) was -61.7 ± 2.7 mV. The “Normalized tail current V0.5” value ([2]; KCNQ2, 10 µM) was -61.2 ± 0.87 mV, the Slope ([2]; KCNQ2, 10 µM) was 7.0 ± 1.0 mV and the “τ act, -40 mV” value ([2]; KCNQ2, 10 µM) was 341 ± 22 ms. The “τ deact, -80 mV” value ([2]; KCNQ2, 10 µM) was 199 ± 11 ms, the “Non-normalized tail current V0.5” value ([2]; KCNQ2, 30 µM) was -68.7 ± 2.7 mV and the “Normalized tail current V0.5” value ([2]; KCNQ2, 30 µM) was -68.5 ± 1.5 mV. The Slope ([2]; KCNQ2, 30 µM) was 7.4 ± 0.6 mV, the “shift in midpoint voltage of activation” value ([2]; KCNQ2, 30 µM) was −24 mV and the “τ act, -40 mV” value ([2]; KCNQ2, 30 µM) was 301 ± 19 ms. For the same molecule, the “τ deact, -80 mV” value ([2]; KCNQ2, 30 µM) was 173 ± 10 ms, the “Non-normalized tail current V0.5” value ([2]; KCNQ2, 100 µM) was -66.2 ± 2.7 mV and the “Normalized tail current V0.5” value ([2]; KCNQ2, 100 µM) was -66.0 ± 2.7 mV. The Slope ([2]; KCNQ2, 100 µM) was 8.1 ± 1.2 mV, the “τ act, -40 mV” value ([2]; KCNQ2, 100 µM) was 353 ± 22 ms and the “τ deact, -80 mV” value ([2]; KCNQ2, 100 µM) was 190 ± 8 ms. The “effect on KCNA1 currents” value [3] was “no effect”, the “effect on KCNQ1” value [4] was “activated” and the EC50 [5] was 20.2 µM. For the same molecule, the “Non-normalized tail current V0.5” value ([5]; KCNQ4, 0.1 µM) was -17.1 ± 8.1 mV, the “Normalized tail current V0.5” value ([5]; KCNQ4, 0.1 µM) was -17.0 ± 1.6 mV and the Slope ([5]; KCNQ4, 0.1 µM) was 14.1 ± 1.6 mV. For the same molecule, the “τ act, -40 mV” value ([5]; KCNQ4, 0.1 µM) was 941 ± 52 ms, the “τ deact, -80 mV” value ([5]; KCNQ4, 0.1 µM) was 924 ± 223 ms and the “Non-normalized tail current V0.5” value ([5]; KCNQ4, 1 µM) was -18.1 ± 9.0 mV. The “Normalized tail current V0.5” value ([5]; KCNQ4, 1 µM) was -18.1 ± 1.9 mV, the Slope ([5]; KCNQ4, 1 µM) was 15.0 ± 1.9 mV and the “τ act, -40 mV” value ([5]; KCNQ4, 1 µM) was 878 ± 78 ms. The “τ deact, -80 mV” value ([5]; KCNQ4, 1 µM) was 891 ± 234 ms, the “Non-normalized tail current V0.5” value ([5]; KCNQ4, 3 µM) was -20.5 ± 9.8 mV and the “Normalized tail current V0.5” value ([5]; KCNQ4, 3 µM) was -20.1 ± 1.3 mV. The Slope ([5]; KCNQ4, 3 µM) was 15.6 ± 1.9 mV, the “τ act, -40 mV” value ([5]; KCNQ4, 3 µM) was 851 ± 70 ms and the “τ deact, -80 mV” value ([5]; KCNQ4, 3 µM) was 861 ± 240 ms. The “Non-normalized tail current V0.5” value ([5]; KCNQ4, 10 µM) was -25.3 ± 9.7 mV, the “Normalized tail current V0.5” value ([5]; KCNQ4, 10 µM) was -25.6 ± 1.9 mV and the Slope ([5]; KCNQ4, 10 µM) was 15.9 ± 1.9 mV. For the same molecule, the “τ act, -40 mV” value ([5]; KCNQ4, 10 µM) was 847 ± 94 ms, the “τ deact, -80 mV” value ([5]; KCNQ4, 10 µM) was 906 ± 293 ms and the “Non-normalized tail current V0.5” value ([5]; KCNQ4, 30 µM) was -32.9 ± 9.7 mV. For the same molecule, the “Normalized tail current V0.5” value ([5]; KCNQ4, 30 µM) was -32.1 ± 1.9 mV, the Slope ([5]; KCNQ4, 30 µM) was 14.4 ± 1.8 mV and the “shift in midpoint voltage of activation” value ([5]; KCNQ4, 30 µM) was −17 mV. The “τ act, -40 mV” value ([5]; KCNQ4, 30 µM) was 865 ± 108 ms, the “τ deact, -80 mV” value ([5]; KCNQ4, 30 µM) was 905 ± 283 ms and the “Non-normalized tail current V0.5” value ([5]; KCNQ4, 100 µM) was -31.3 ± 9.4 mV. For the same molecule, the “Normalized tail current V0.5” value ([5]; KCNQ4, 100 µM) was -31.5 ± 1.3 mV, the Slope ([5]; KCNQ4, 100 µM) was 16.4 ± 3.2 mV and the “τ act, -40 mV” value ([5]; KCNQ4, 100 µM) was 1092 ± 170 ms. The “τ deact, -80 mV” value ([5]; KCNQ4, 100 µM) was 1197 ± 446 ms, the EC50 [6] was 67.1 µM and the “KCNQ5 current increase at −60 mV” value ([6]; 100 µM) was “eight-fold”. The “Non-normalized tail current V0.5” value ([6]; KCNQ5, 1 µM) was -49.3 ± 1.2 mV, the “Normalized tail current V0.5” value ([6]; KCNQ5, 1 µM) was -49.9 ± 2.1 mV and the Slope ([6]; KCNQ5, 1 µM) was 8.3 ± 2.1 mV. The “Non-normalized tail current V0.5” value ([6]; KCNQ5, 3 µM) was -51.7 ± 1.8 mV, the “Normalized tail current V0.5” value ([6]; KCNQ5, 3 µM) was -51.1 ± 2.3 mV and the Slope ([6]; KCNQ5, 3 µM) was 8.5 ± 2.1 mV. The “Non-normalized tail current V0.5” value ([6]; KCNQ5, 10 µM) was -51.9 ± 0.8 mV, the “Normalized tail current V0.5” value ([6]; KCNQ5, 10 µM) was -51.5 ± 3.2 mV and the Slope ([6]; KCNQ5, 10 µM) was 8.6 ± 2.9 mV. For the same molecule, the “Non-normalized tail current V0.5” value ([6]; KCNQ5, 30 µM) was -55.9 ± 0.8 mV, the “Normalized tail current V0.5” value ([6]; KCNQ5, 30 µM) was -55.6 ± 3.8 mV and the Slope ([6]; KCNQ5, 30 µM) was 8.8 ± 3.6 mV. The “shift in midpoint voltage of activation” value ([6]; KCNQ5, 30 µM) was −14 mV, the “Non-normalized tail current V0.5” value ([6]; KCNQ5, 100 µM) was -71.1 ± 2.6 mV and the “Normalized tail current V0.5” value ([6]; KCNQ5, 100 µM) was -71.6 ± 2.1 mV.
